Experimental data published in paper PMC7468108 (Communications Biology, 2020).

Assays:
[1] = molecular target: T1, hIAPP (Homo sapiens, UniProt P10997); assay: CD spectroscopy of hIAPP aggregated with the tested molecules; conditions: increasing doses up to 5-fold molar excess
T1 construct: hIAPP is a 37-amino acid neuroendocrine peptide hormone; purchased Peptide 2.0 (USA)
T1 sequence (P10997 34-70 limits assumed): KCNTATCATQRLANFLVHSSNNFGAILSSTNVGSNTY
Procedure: CD analysis was performed also for hIAPP (Fig. 2f and Supplementary Fig. 5). […] With different degrees of effectiveness, the presence of all tested hybrid molecules caused a reduction of the intensity of the CD signal, indicating an overall lower of β-sheet content of hIAPP (Fig. 2f and Supplementary Fig. 5).
The blank was subtracted from the acquired CD spectra. For the CD study in the presence of the tryptophan-galacosylamine molecules, the spectra of hybrid molecules were also recorded separately and subtracted from the respective sample spectra. The normalized data were plotted using Origin pro 2015 software.

[2] = molecular target: T1, hIAPP; assay: ThT-binding assay, inhibition of hIAPP aggregation; format: biochemical; conditions: for Normalized ThT fluorescence: hIAPP (10 µM) : molecule 1:5, average of three data sets; for % amyloid of hIAPP: hIAPP 10 µM
Procedure: A similar inhibitory effect by the hybrid molecules was found toward hIAPP aggregation. […] Upon co-incubation of hIAPP with the hybrid molecules, a dose-response inhibition of hIAPP fibril formation was observed (Fig. 2d, e and Supplementary Fig. 3). […] Also, for IAPP, the marginally stronger inhibitory effect of WGalNAc was statistically significant (Supplementary Fig. 2b).
The resulting thin films were dissolved in PBS (100 mM, pH 7.4) and sonicated for 5 min to get a stock concentration of 50 µM, which immediately diluted to required concentration for an experiment. Stock solutions of ThT (4 mM in PBS) and hybrid molecules (10 mM in PBS) were prepared. All the stock solutions were diluted according to the requirement.
The experiment was performed according to the previous report. […] Kinetics fluorescence data were collected at 37 °C in triplicate using Infinite M200 microplate reader (Tecan, Switzerland), with measurements acquired at 15 min intervals. Excitation and emission wavelengths were set at 440 nm and 485 nm, respectively.

[3] = molecular target: T2, pre-formed fibrils of hIAPP (Homo sapiens, UniProt P10997); assay: TEM of pre-formed hIAPP fibrils with the tested molecules; conditions: 5-fold molar excess of compound
T2 construct: hIAPP is a 37-amino acid neuroendocrine peptide hormone; purchased Peptide 2.0 (USA)
T2 sequence (P10997 34-70 limits assumed): T1 sequence (P10997 34-70 limits assumed)
Procedure: For efficient treatment of proteinopathies it may be advantageous to disassemble amyloid aggregates/fibrils which are usually already present at the time of diagnosis[75]–[77]. Therefore, the ability of the hybrid molecules to disrupt pre-formed fibrils of Aβ42 and hIAPP was examined. […] According to the ThT kinetic results, this time was sufficient to complete fibril formation (Fig. 2a, d). Then, various doses of the hybrid molecules were added to the pre-formed fibrils and the mixtures were incubated for additional 10 h. The process of disaggregation was monitored by ThT-binding assay, CD spectroscopy, TEM and Congo red staining (Fig. 5).
Samples (10 µL) were placed for 2 min on 400-mesh copper grids covered with carbon-stabilized Formvar film (Electron Microscopy Sciences (EMS), Hatfield, PA). Excess fluid was removed, and grids were negatively stained with 2% uranyl acetate solution (10 µL) for 2 min. After excess fluid removal, the samples were visualized using a JEM-1400 TEM (JEOL), operated at 80 kV.

Question: How did the “effect on hIAPP secondary structure (CD), in words” value [1] turn out when `NC(Cc1c[nH]c2ccccc12)C(=O)NC(Cc1c[nH]c2ccccc12)C(=O)O` (stereo not shown) [WW] was run?
Answer: substantial effect

Question: What about the “Normalized ThT fluorescence” value ([2]; Time 0 h) of the same compound?
Answer: 29.978

Question: And the “Normalized ThT fluorescence” value ([2]; Time 0.25 h)?
Answer: -2.428

Question: And the “Normalized ThT fluorescence” value ([2]; Time 0.5 h)?
Answer: 312.254

Question: What about the “Normalized ThT fluorescence” value ([2]; Time 0.75 h) of the same compound?
Answer: 629.363

Question: What about the “Normalized ThT fluorescence” value ([2]; Time 1 h) of the same compound?
Answer: 980.330

Question: What about the “Normalized ThT fluorescence” value ([2]; Time 1.25 h) of the same compound?
Answer: 1609.153

Question: And the “Normalized ThT fluorescence” value ([2]; Time 1.5 h)?
Answer: 2335.279

Question: And the “Normalized ThT fluorescence” value ([2]; Time 1.75 h)?
Answer: 2857.634

Question: And the “Normalized ThT fluorescence” value ([2]; Time 2 h)?
Answer: 3166.885

Question: What about the “Normalized ThT fluorescence” value ([2]; Time 2.25 h) of the same compound?
Answer: 3521.809

Question: What about the “Normalized ThT fluorescence” value ([2]; Time 2.5 h) of the same compound?
Answer: 3762.743

Question: What about the “Normalized ThT fluorescence” value ([2]; Time 2.75 h) of the same compound?
Answer: 4063.191

Question: What about the “Normalized ThT fluorescence” value ([2]; Time 3 h) of the same compound?
Answer: 4256.338

Question: What about the “Normalized ThT fluorescence” value ([2]; Time 3.25 h) of the same compound?
Answer: 4441.516

Question: And the “Normalized ThT fluorescence” value ([2]; Time 3.5 h)?
Answer: 4588.861

Question: What about the “Normalized ThT fluorescence” value ([2]; Time 3.75 h) of the same compound?
Answer: 4641.496

Question: And the “Normalized ThT fluorescence” value ([2]; Time 4 h)?
Answer: 4783.902

Question: What about the “Normalized ThT fluorescence” value ([2]; Time 4.25 h) of the same compound?
Answer: 5155.140

Question: What about the “Normalized ThT fluorescence” value ([2]; Time 4.5 h) of the same compound?
Answer: 5083.691

Question: What about the “Normalized ThT fluorescence” value ([2]; Time 4.75 h) of the same compound?
Answer: 5147.945

Question: What about the “Normalized ThT fluorescence” value ([2]; Time 5 h) of the same compound?
Answer: 5383.622

Question: And the “Normalized ThT fluorescence” value ([2]; Time 5.25 h)?
Answer: 5413.206

Question: And the “Normalized ThT fluorescence” value ([2]; Time 5.5 h)?
Answer: 5636.242

Question: And the “Normalized ThT fluorescence” value ([2]; Time 5.75 h)?
Answer: 5718.561

Question: What about the “Normalized ThT fluorescence” value ([2]; Time 6 h) of the same compound?
Answer: 5762.151

Question: And the “Normalized ThT fluorescence” value ([2]; Time 6.25 h)?
Answer: 5998.572

Question: What about the “Normalized ThT fluorescence” value ([2]; Time 6.5 h) of the same compound?
Answer: 6267.216

Question: And the “Normalized ThT fluorescence” value ([2]; Time 6.75 h)?
Answer: 6187.949

Question: What about the “Normalized ThT fluorescence” value ([2]; Time 7 h) of the same compound?
Answer: 6251.809

Question: And the “Normalized ThT fluorescence” value ([2]; Time 7.25 h)?
Answer: 6421.160

Question: And the “Normalized ThT fluorescence” value ([2]; Time 7.5 h)?
Answer: 6518.393

Question: And the “Normalized ThT fluorescence” value ([2]; Time 7.75 h)?
Answer: 6603.373

Question: And the “Normalized ThT fluorescence” value ([2]; Time 8 h)?
Answer: 6737.364

Question: And the “Normalized ThT fluorescence” value ([2]; Time 8.25 h)?
Answer: 6750.786

Question: What about the “Normalized ThT fluorescence” value ([2]; Time 8.5 h) of the same compound?
Answer: 6792.841

Question: And the “Normalized ThT fluorescence” value ([2]; Time 8.75 h)?
Answer: 6865.131

Question: And the “Normalized ThT fluorescence” value ([2]; Time 9 h)?
Answer: 6824.556

Question: What about the “Normalized ThT fluorescence” value ([2]; Time 9.25 h) of the same compound?
Answer: 6905.238

Question: What about the “Normalized ThT fluorescence” value ([2]; Time 9.5 h) of the same compound?
Answer: 6910.878

Question: And the “Normalized ThT fluorescence” value ([2]; Time 9.75 h)?
Answer: 6951.940

Question: What about the “Normalized ThT fluorescence” value ([2]; Time 10 h) of the same compound?
Answer: 6938.219

Question: And the “Normalized ThT fluorescence” value ([2]; Time 10.25 h)?
Answer: 6978.295

Question: And the “Normalized ThT fluorescence” value ([2]; Time 10.5 h)?
Answer: 7036.631

Question: What about the “Normalized ThT fluorescence” value ([2]; Time 10.75 h) of the same compound?
Answer: 7131.130

Question: And the “Normalized ThT fluorescence” value ([2]; Time 11 h)?
Answer: 7205.208

Question: And the “Normalized ThT fluorescence” value ([2]; Time 11.25 h)?
Answer: 7201.975

Question: What about the “Normalized ThT fluorescence” value ([2]; Time 11.5 h) of the same compound?
Answer: 7247.388

Question: And the “Normalized ThT fluorescence” value ([2]; Time 11.75 h)?
Answer: 7228.342

Question: What about the “Normalized ThT fluorescence” value ([2]; Time 12 h) of the same compound?
Answer: 7216.738

Question: What about the “Normalized ThT fluorescence” value ([2]; Time 12.25 h) of the same compound?
Answer: 7265.266

Question: And the “Normalized ThT fluorescence” value ([2]; Time 12.5 h)?
Answer: 7198.053

Question: And the “Normalized ThT fluorescence” value ([2]; Time 12.75 h)?
Answer: 7266.511

Question: And the “Normalized ThT fluorescence” value ([2]; Time 13 h)?
Answer: 7230.088

Question: And the “Normalized ThT fluorescence” value ([2]; Time 13.25 h)?
Answer: 7204.082

Question: What about the “Normalized ThT fluorescence” value ([2]; Time 13.5 h) of the same compound?
Answer: 7254.393

Question: And the “Normalized ThT fluorescence” value ([2]; Time 13.75 h)?
Answer: 7295.955

Question: And the “Normalized ThT fluorescence” value ([2]; Time 14 h)?
Answer: 7250.976

Question: And the “Normalized ThT fluorescence” value ([2]; Time 14.25 h)?
Answer: 7276.851

Question: And the “Normalized ThT fluorescence” value ([2]; Time 14.5 h)?
Answer: 7406.119

Question: And the “Normalized ThT fluorescence” value ([2]; Time 14.75 h)?
Answer: 7447.878

Question: And the “Normalized ThT fluorescence” value ([2]; Time 15 h)?
Answer: 7365.784

Question: What about the “% amyloid of hIAPP” value ([2]; molar ratio hIAPP:tested molecule 1:1) of the same compound?
Answer: 105.600%

Question: And the “% amyloid of hIAPP” value ([2]; molar ratio hIAPP:tested molecule 1:5)?
Answer: 115.433%

Question: And the “% amyloid of hIAPP” value ([2]; molar ratio hIAPP:tested molecule 5:1)?
Answer: 99.082%

Question: What about the “inhibition of hIAPP fibril formation (ThT), in words” value ([2]; molar ratios 5:1, 1:1, 1:5) of the same compound?
Answer: No inhibitory effect

Question: What about the “pre-formed hIAPP fibrils by TEM, in words” value [3] of the same compound?
Answer: unchanged
